This test deals with T1, MET (cMet) (Homo sapiens, UniProt P08581).
T1 construct: purchased Thermo Fisher Scientific (Life Technologies) SelectScreen
The experiment in a line: SelectScreen Z'LYTE. The test is classed as biochemical. A digest of the protocol: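 SelectScreen broad panel; activity (Z'LYTE, Adapta) plus binding formats. ATP: Km app for CSF1R Z'LYTE; 10 for CAMK1 Adapta. Readout = % per kinase.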

T1 sequence (P08581 25-1390): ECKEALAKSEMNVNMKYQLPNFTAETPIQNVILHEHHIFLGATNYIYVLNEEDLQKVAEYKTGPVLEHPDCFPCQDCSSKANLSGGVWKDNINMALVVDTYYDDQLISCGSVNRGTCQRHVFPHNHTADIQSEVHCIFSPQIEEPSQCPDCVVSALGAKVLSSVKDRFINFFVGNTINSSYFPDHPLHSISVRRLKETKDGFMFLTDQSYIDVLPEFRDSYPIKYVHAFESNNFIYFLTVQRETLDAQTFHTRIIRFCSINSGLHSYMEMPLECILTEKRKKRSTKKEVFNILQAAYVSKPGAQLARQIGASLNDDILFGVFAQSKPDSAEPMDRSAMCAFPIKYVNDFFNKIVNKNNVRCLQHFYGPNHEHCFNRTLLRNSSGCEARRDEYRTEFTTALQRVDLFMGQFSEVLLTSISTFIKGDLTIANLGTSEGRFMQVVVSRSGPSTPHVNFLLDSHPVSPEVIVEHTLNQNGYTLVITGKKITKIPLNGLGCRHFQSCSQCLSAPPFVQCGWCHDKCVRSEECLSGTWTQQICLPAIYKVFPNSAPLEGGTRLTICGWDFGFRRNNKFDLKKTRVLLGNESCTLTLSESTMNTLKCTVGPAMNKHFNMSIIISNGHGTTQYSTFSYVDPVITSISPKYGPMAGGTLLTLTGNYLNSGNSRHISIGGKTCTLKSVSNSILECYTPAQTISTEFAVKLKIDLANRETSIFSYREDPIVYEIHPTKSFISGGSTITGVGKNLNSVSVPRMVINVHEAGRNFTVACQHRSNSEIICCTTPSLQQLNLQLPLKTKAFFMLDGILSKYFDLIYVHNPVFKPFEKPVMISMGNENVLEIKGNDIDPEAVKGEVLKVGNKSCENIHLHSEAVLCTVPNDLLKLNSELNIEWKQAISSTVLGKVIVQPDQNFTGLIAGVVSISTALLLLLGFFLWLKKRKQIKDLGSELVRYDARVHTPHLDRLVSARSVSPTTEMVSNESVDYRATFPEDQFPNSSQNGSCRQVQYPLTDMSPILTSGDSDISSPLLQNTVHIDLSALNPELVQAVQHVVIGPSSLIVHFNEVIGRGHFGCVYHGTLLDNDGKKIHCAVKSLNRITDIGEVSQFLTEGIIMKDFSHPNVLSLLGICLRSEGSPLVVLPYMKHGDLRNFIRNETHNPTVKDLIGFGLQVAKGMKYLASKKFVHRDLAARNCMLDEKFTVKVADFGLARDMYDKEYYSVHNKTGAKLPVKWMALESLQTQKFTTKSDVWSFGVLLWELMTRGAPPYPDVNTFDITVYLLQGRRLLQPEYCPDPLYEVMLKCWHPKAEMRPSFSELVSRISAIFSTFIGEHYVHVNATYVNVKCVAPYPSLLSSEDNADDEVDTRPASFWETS

As usually defined, the inhibition is the relative decrease from the control value, in per cent. For `CN(C(=O)CN1CCOCC1)c1ccc2sc3c(-c4cccc5c(=O)cc(N6CC7CCC(C6)O7)oc45)cccc3c2c1` [NU5455], the inhibition at 1 µM is -15.1%.
